Key:
[1] = target: T1, D4.4 receptor (Homo sapiens, UniProt P21917); test: Competitive binding to D4.4 dopamine receptor ([3H]-YM-09151-2 radioligand); conditions: 5 mcM compound; human recombinant D4.4 in CHO cells; na = no activity
T1 construct: expressed in transfected cells; host or cells: CHO cells
T1 sequence (P21917 1-419): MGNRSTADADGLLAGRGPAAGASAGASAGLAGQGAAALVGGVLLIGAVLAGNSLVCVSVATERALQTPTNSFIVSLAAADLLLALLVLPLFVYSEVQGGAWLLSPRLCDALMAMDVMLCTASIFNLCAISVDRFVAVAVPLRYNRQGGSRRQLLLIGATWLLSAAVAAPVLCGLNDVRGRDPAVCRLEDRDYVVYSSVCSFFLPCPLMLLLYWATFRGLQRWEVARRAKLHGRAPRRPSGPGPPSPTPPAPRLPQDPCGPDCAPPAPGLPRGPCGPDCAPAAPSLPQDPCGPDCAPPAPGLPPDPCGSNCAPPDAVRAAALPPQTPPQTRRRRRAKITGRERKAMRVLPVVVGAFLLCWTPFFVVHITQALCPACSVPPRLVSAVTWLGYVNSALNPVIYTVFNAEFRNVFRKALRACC
Procedure: (§1) Compounds were assayed for competitive binding to D2 SHORT and D4.4 type dopamine receptors. Both receptor types are expressed as human recombinant proteins in CHO cells, as described, for example, in Jarvis et al. (1973); Van Tol et al. (1991) and Van Tol et al. (1992).
(§2) Determination of binding to D4.4 receptor was performed using [^3H]-YM-09151-2 (70-87 Ci/mmol, 0.3 nM), as a radioligand, in with the presence of various concentrations of the tested compound. Reactions were carried out in 50 mM TRIS-HCl (pH 7.4) containing 5 mM MgCl2, 5 mM EDTA, 5 mM KCl and 1.5 mM CaCl2, for 60 minutes at 22° C. The reaction was terminated by rapid vacuum filtration onto glass fiber filters. Radioactivity trapped onto the filters was determined (counted) and compared to control values in order to accurately evaluate any interaction of the tested compound(s) with the cloned dopamine D4.4 binding site.

[2] = target: T2, Human recombinant dopamine D4.4 receptors expressed in CHO-K1 cells (Homo sapiens, UniProt P21917); test: GTPgammaS Cellular Assay (agonist response); format: biochemical; conditions: relative to the 1 μM dopamine response; tested at 5, 1, 0.1, 0.01 μM (concentration of tabulated value not given); na = no activity; read-out: D4.4(h) GTPgammaS^35 Cellular Assay, Agonist Response, %
T2 construct: expressed in transfected cells; host or cells: CHO-K1 cells (membranes)
T2 sequence (P21917 1-419): T1 sequence (P21917 1-419)
Procedure: Human recombinant dopamine D4.4 receptors expressed in CHO-K1 cells were used. The tested compound was pre-incubated with 0.1 mg/ml membranes and 10 μM GDP for 20 minutes at 25° C. in modified HEPES buffer (pH 7.4). SPA beads were then added and the mixture was maintained for additional 60 minutes at 30° C. The reaction was initiated by the addition of 0.3 nM [^35S]GTPγS, and the obtained reaction mixture were incubated for 30 minutes. Test compound-induced increase of [^35S]GTPγS binding by 50 percent or more (≧50%) relative to the 1 μM dopamine response indicated dopamine D4.4 agonist activity. Test compound-induced inhibition of 1 μM dopamine-induced increase of [^35S]GTPγS binding response by 50 percent or more (≧50%) indicated receptor antagonist activity. Compounds were tested at concentrations of 5, 1, 0.1, 0.01 μM.

[3] = test system: D2 SHORT and D4.4 type dopamine receptors; test: D4/D2 binding ratio from competitive binding to D4.4 and D2 short receptors; parameters: species or system human; conditions: ratio of concentrations required to inhibit 50% of radioligand binding for each receptor
Procedure: as §1
Determination of binding to D2 short receptor was performed using [^3H]-spiperone, a D2 receptor ligand (Gundlach et al., 1984), as a radioligand (20-60 Ci/mmol, 0.2 nM) in the presence of various concentrations of the tested compound. Reactions were carried out in 50 mM TRIS-HCl (pH 7.4) containing 120 mM NaCl, 5 mM KCl, 5 mM MgCl2 and 1 mM EDTA, for 60 minutes at 25° C. The reaction was terminated by rapid vacuum filtration onto glass fiber filters. Radioactivity trapped onto the filters was determined (counted) and compared to control values in order to accurately evaluate any interaction of the test compound(s) with the cloned dopamine D2 short binding site.
as §2
D4/D2 binding ratios were determined based on the ratio of the concentration of each tested compound required to inhibit 50% of the radioligand binding for each receptor.

[4] = target: T3, PDE5 partially purified from human platelets (Homo sapiens, UniProt O76074); test: Phosphodiesterase Type 5 (PDE5) Inhibition; format: biochemical; conditions: for IC50: read-out: PDE5 IC50, 10^−6 M; for exhibit both PDE5 inhibition and D4 agonist activity (dual activity): referring to Table 2 (PDE5 and D4 assays)
T3 construct: PDE5 partially purified from human platelets was used; from tissue; host or cells: human platelets
Procedure: Phosphodiesterase type 5 (PDE5) catalyzes the conversion of cAMP or cGMP to their respective monophosphate forms. PDE5 has a high Km for cAMP and a low Km for cGMP, is insensitive to Ca^2+/calmodulin or cGMP regulation, and is relatively sensitive to inhibitors such as dipyridamol and zaprinast.
PDE5 partially purified from human platelets was used. The tested compound (at a concentration of 0.1, 1, 20 or 50 μM) and/or vehicle was incubated with 3.5 μg enzyme and 1 μM cGMP containing 0.01 μM [^3H]cGMP in Tris buffer pH 7.5 for 20 minutes at 30° C. Since enzyme activity may change from lot to lot, the concentration used was adjusted if required.
The reaction was terminated by boiling the reaction mixture for 2 minutes. The obtained GMP was then converted to guanosine by addition of 10 mg/ml snake venom nucleotidase and further incubation at 30° C. for 10 minutes. Unhydrolyzed cGMP was bound to AG1-X2 resin, and remaining [^3H]Guanosine in the aqueous phase was quantitated by scintillation counting.

[5] = 'active' = observed activity not quantitated

O=c1[nH]c(CN2CCN(c3ccccc3F)CC2)nc2ccccc12 [Compound 104, 2-{[4-(2-fluorophenyl)piperazin-1-yl]methyl}quinazolin-4(3H)-one]
inhibition at 5 µM [1]: 59%
Emax [2]: 62%
D4/D2 Selectivity [3]: >100

COc1ccccc1N1CCN(Cc2nc3ccccc3c(=O)[nH]2)CC1 [Compound 107, 2-{[4-(2-methoxyphenyl)piperazin-1-yl]methyl}quinazolin-4(3H)-one]
inhibition at 5 µM [1]: 88%
Emax [2]: 44%
D4/D2 Selectivity [3]: >70

CCOc1ccccc1N1CCN(Cc2nc3ccccc3c(=O)[nH]2)CC1 [Compound 108, 2-{[4-(2-ethoxyphenyl)piperazin-1-yl]methyl}quinazolin-4(3H)-one]
inhibition at 5 µM [1]: 93%
Emax [2]: 49%
D4/D2 Selectivity [3]: >100

O=c1[nH]c(CN2CCN(c3ccccc3Cl)CC2)nc2ccccc12 [Compound 109, 2-{[4-(2-chlorophenyl)piperazin-1-yl]methyl}quinazolin-4(3H)-one]
inhibition at 5 µM [1]: 57%
Emax [2]: 54%
D4/D2 Selectivity [3]: >100

N#Cc1ccccc1N1CCN(Cc2nc3ccccc3c(=O)[nH]2)CC1 [Compound 110, 2-{4-[(4-oxo-3,4-dihydroquinazolin-2-yl)methyl]piperazin-1-yl}benzonitrile]
inhibition at 5 µM [1]: 52%
Emax [2]: 69%
D4/D2 Selectivity [3]: >500

O=c1[nH]c(CN2CCN(c3cccc(O)c3)CC2)nc2ccccc12 [Compound 113, 2-{[4-(3-hydroxyphenyl)piperazin-1-yl]methyl}quinazolin-4(3H)-one]
inhibition at 5 µM [1]: 91%
Emax [2]: 42%
D4/D2 Selectivity [3]: ~50
IC50 [4, 5]: 20 µM
exhibit both PDE5 inhibition and D4 agonist activity (dual activity) [4]: both PDE5 inhibition and D4 agonist activity

O=c1[nH]c(CN2CC=C(c3ccccc3)CC2)nc2ccccc12 [Compound 124, 2-[(4-phenyl-3,6-dihydropyridin-1(2H)-yl)methyl]quinazolin-4(3H)-one]
inhibition at 5 µM [1]: 73%
Emax [2]: 57%
D4/D2 Selectivity [3]: ~85

O=c1cc(CN2CC=C(c3ccccc3)CC2)oc2ccccc12 [Compound 201, 2-[(4-phenyl-3,6-dihydropyridin-1(2H)-yl)methyl]-4H-chromen-4-one]
inhibition at 5 µM [1]: 72%
Emax [2]: 75%
D4/D2 Selectivity [3]: ~10

O=c1cc(CN2CC=C(c3ccccc3)CC2)nc2ccccn12 [Compound 301, 2-[(4-phenyl-3,6-dihydropyridin-1(2H)-yl)methyl]-4H-pyrido[1,2-a]pyrimidin-4-one]
inhibition at 5 µM [1]: 59%
Emax [2]: 69%
D4/D2 Selectivity [3]: ~10

O=c1[nH]c(CN2CCN(c3ncccn3)CC2)nc2cc(Cl)ccc12 [Compound B-72, 7-chloro-2-((4-(pyrimidin-2-yl)piperazin-1-yl)methyl)quinazolin-4(3H)-one]
inhibition at 5 µM [1]: 70%
inhibition at 50 µM ([4]; 50 mcM compound, 1 μM cGMP): 62%
IC50 [4, 5]: 2 µM
exhibit both PDE5 inhibition and D4 agonist activity (dual activity) [4]: both PDE5 inhibition and D4 agonist activity

O=c1[nH]c(CN2CCC=C(c3ccccn3)C2)nc2ccccc12 [Compound B-82, 2-((5,6-dihydro-3-(pyridin-2-yl)pyridin-1(2H)-yl)methyl)quinazolin-4(3H)-one]
inhibition at 5 µM [1]: 12%
PDE5 % inhibition at 50 mcM ([4]; 50 mcM compound, 1 μM cGMP): Problems with solubility
PDE5 IC50, 10^−6 M [4, 5]: Problems with solubility
